Data published in patent US9750718B2, “Methods of treating hepatic fibrosis and associated diseases by regulating Rev-ERB activity” (The Charlotte-Mecklenburg Hospital Authority, priority 2012, dated 2017).

Assays:
primary rat HSCs [1] = assay: Adipogenesis in culture-activated primary HSCs (Oil Red O staining, qRT-PCR of adipogenic factors); type: cell-based
Description: (§1) A series of experiments were conducted to determine the functional role of Rev-erbα in HSC transdifferentiation. In these experiments, culture-activated primary rat HSCs and human LX-2 cells were used. To determine the effect of Rev-erbα on HSC transdifferentiation and contraction, cells were treated with a specific synthetic modulator, SR6452 (10 μM). mRNA and protein expression were determined by qRT-PCR and Western blot, respectively. Changes in cellular morphology, Rev-erb expression/localization and αSMA expression were observed by confocal microscopy. Additionally, cell contractility was assessed.
(§2) Primary rat HSCs were isolated by pronase/collagenase perfusion digestion followed by density gradient centrifugation with Optiprep. Media was replaced every other day to replenish Rev-erbα modulator SR6452, which was present at a 10 μM concentration. Cells were treated with MDIR mixture (IBMX, dexamethasone, insulin, rosiglitazone), TGFβ, or DMSO (vehicle). Some experiments were performed with the human HSC cell line, LX-2.
(§3) mRNA expression was normalized to 18S rRNA.
FIGS. 3A-B illustrates that modulation of Rev-erbα activity can regulate adipogenesis. Primary HSCs were culture-activated for 5 days (A) or 15 days (B). Cells were treated with vehicle (DMSO, open bar), or the Rev-erbα modulator SR6452 ([…], purple bar) for the days indicated. The medium was changed every 48 hrs. FIG. 3A provides a chart summarizing the amount of PPARγ, SREBP1, and Lep mRNA on day 5.

primary rat HSCs [2] = assay: ECM gene expression by qRT-PCR in primary HSCs; type: cell-based; details: SR6452 10 μM, day Q to day 5 or day 9 to day 12
Description: as §1, §2, §3
FIGS. 4A-B illustrate that the Rev-erbα modulator SR6452 can suppress/decrease ECM gene expression. Primary rat HSCs were cultured from quiescence (day Q) to day 5 (FIG. 4A) or from day 9 to day 12 (FIG. 4B) and treated with Rev-erbα modulator SR6452. qRT-PCR was performed to determine ECM gene expression. DMSO was used as the vehicle control, while SR6452 was used as the Rev-erbα modulator.

primary rat HSCs [3] = assay: Myofibroblast marker expression and morphology (qRT-PCR, αSMA immunocytochemistry); type: cell-based
Description: as §1, §3
Prior to transfection, culture-activated HSCs (for varying days of activation) were seeded onto glass coverslips. Cells were fixed with 4% paraformaldehyde and stained with anti-αSMA antibody, a marker of HSC activation. Cells were imaged using a Zeiss confocal microscope. The fluorescence indicates Rev-erb or αSMA expression.
(§4) FIGS. 5A-D illustrate that Rev-erbα modulator SR6452 can regulate myofibroblast marker expression and HSC contraction. Primary rat HSCs were cultured from quiescence (day Q) to day 5 (FIG. 5A) or from day 9 to day 12 (FIG. 5B) and treated with Rev-erbα modulator SR6452. qRT-PCR was performed for myofibroblast gene expression. Samples were normalized with 18S rRNA. […] HSCs (day 5) were embedded in a collagen gel and treated as indicated for 48 hrs. Gels were then released from plastic surface and contraction monitored after 72 hrs. Materials used were DMSO (vehicle control), SR6452, Rev-erb modulator; and BDM (2,3-Butanedione monoxime), myosin inhibitor.

primary rat HSCs [4] = assay: Cell contraction assay (collagen gel); type: cell-based; details: HSCs embedded in collagen gel, treated 48 hrs, contraction monitored after 72 hrs
Description: Primary rat HSCs (day 9, 2-5×10^6 cells/ml) were embedded in a collagen lattice per manufacturer's instructions. Cells were treated with synthetic Rev-erbα ligand SR6452. Collagen gel size change was imaged using a BioSpectrum Imaging System.
as §4

LX-2 cells = assay: Response of LX-2 cells to Rev-erb agonist, with or without Rev-erbα overexpression; type: cell-based, human
Description: Primary rat HSCs were isolated via standard pronase-collagenase digestion and subsequent density gradient centrifugation. LX-2 cells were treated with adipogenic mixture (MDI), 5 ng/ml of recombinant transforming growth factor-beta (TGFβ), or plated on Matrigel™ (growth condition which promotes HSC quiescence) for various time points. Gene expression was determined by RealTime PCR and Western blot. Immunocytochemistry followed by confocal microscopy was used to determine sub-cellular localization. A Rev-erb DNA binding domain (DBD) mutant was produced by standard molecular cloning. LX-2 cells were transfected with expression vectors or controls using Fugene®HD.

Rev-erbα [5] = molecular target: T1, Rev-erbα (Homo sapiens, UniProt P20393); details: cited from earlier work
T1 sequence (P20393 1-614): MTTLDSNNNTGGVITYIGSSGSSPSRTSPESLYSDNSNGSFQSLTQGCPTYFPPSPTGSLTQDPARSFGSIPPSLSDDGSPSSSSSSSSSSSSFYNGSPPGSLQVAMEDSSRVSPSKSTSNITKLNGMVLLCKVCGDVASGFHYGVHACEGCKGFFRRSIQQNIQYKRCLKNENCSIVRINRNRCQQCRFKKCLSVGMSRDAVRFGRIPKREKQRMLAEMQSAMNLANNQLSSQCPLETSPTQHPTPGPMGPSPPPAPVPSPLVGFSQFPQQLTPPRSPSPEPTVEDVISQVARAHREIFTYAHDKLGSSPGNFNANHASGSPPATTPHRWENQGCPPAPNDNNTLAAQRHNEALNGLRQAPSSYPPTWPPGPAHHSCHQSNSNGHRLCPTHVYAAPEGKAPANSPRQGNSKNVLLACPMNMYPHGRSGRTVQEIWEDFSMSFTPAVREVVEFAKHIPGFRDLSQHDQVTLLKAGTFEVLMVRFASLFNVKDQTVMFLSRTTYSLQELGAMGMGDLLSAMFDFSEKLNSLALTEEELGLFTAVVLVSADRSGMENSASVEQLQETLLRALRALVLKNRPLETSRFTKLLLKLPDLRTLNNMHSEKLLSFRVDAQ

[6] = tested on: CCl4-induced liver fibrosis; assay: CCl4-induced liver fibrosis mouse model (herovici histology, qRT-PCR of whole liver); type: in vivo
Description: Male C57BL/6 mice (age 9 weeks) were injected intraperitoneally with carbon tetrachloride (CCl4) in sterile olive oil (1 μl CCl4/g body weight) twice a week for 5 weeks. Three weeks after initiation of CCl4 treatment, SR9009 (EMD Millipore, dissolved in DMSO) was administered 5 times a week at a dose of 0.1 mg/g body weight for two weeks. Mice were sacrificed 72 hours after the last dose of SR9009 and livers were harvested for further analysis. For histology studies, livers of the right and left lobes were fixed in 10% formalin, embedded in paraffin, sectioned, and stained with herovici to detect collagen deposition. For gene expression studies, total RNA was extracted from whole liver homogenates, and qRT-PCR performed to detect various markers, including αSMA, Col1α1, Col1α2, tenascin C, and connective tissue growth factor.

Rev-erbα [7] = assay: Rev-erbα protein expression in HSCs under pro- and anti-fibrogenic factors (Western blot); type: cell-based, rat
Description: as §2
FIG. 2B show results from primary HSCs that were treated with pro-fibrogenic factor TGFβ (5 ng/ml) or myosin inhibitors blebbistatin (Bleb) or BDM (2,3-Butanedione monoxime) for 48 hrs. Cells were harvested for protein and Western blots performed to detect Rev-erbα.

[8] = SR6452 10 μM, mRNA by qRT-PCR, day 5
[9] = qRT-PCR whole liver, CCl4 + SR9009 0.1 mg/g

**Q.** With `CC(C)(C)OC(=O)CN(Cc1ccc(Cl)cc1)Cc1ccc([N+](=O)[O-])s1` [SR6452, 1,1-Dimethylethyl-N-[(4-chlorophenyl)methyl]-N-[(5-nitro-2-thienyl)methyl]) glycinate] as the molecule, how does the “lipid content in activated HSCs” value (primary rat HSCs [1]; SR6452 10 μM, Oil Red O, day 15) read?
**A.** increased

**Q.** What about the PPARγ expression (primary rat HSCs [1]; [8]) of the same molecule?
**A.** up-regulated

**Q.** What about the SREBP1 expression (primary rat HSCs [1]; [8]) of the same molecule?
**A.** up-regulated

**Q.** And the HSC adipogenesis (primary rat HSCs [1]; exposure of quiescent HSCs)?
**A.** promoted

**Q.** And the “Type I collagen expression” value (primary rat HSCs [2])?
**A.** significantly down-regulated

**Q.** And the fibronectin expression (primary rat HSCs [2])?
**A.** significantly down-regulated

**Q.** What about the “tenascin C expression” value (primary rat HSCs [2]) of the same molecule?
**A.** significantly down-regulated

**Q.** And the “major regulatory and structural genes controlling myofibroblast contraction” value (primary rat HSCs [3]; SR6452 10 μM, qRT-PCR normalized to 18S rRNA)?
**A.** repressive effects

**Q.** What about the cell morphology (primary rat HSCs [3]; day 9 HSCs treated 72 hrs, αSMA/DAPI immunocytochemistry) of the same molecule?
**A.** slightly rounded/folded cytoplasm with disoriented actin fibers

**Q.** What about the “effect on HSC activation” value (primary rat HSCs [3]; overall conclusion of Example 1) of the same molecule?
**A.** suppressive effect

**Q.** What about the HSC contraction (primary rat HSCs [4]) of the same molecule?
**A.** impeded

**Q.** What about the “response to Rev-erb agonist” value (LX-2 cells; LX-2 cells overexpressing Rev-erbα) of the same molecule?
**A.** sensitive

**Q.** What about the “response to Rev-erb agonist” value (LX-2 cells; LX-2 cells without Rev-erbα overexpression) of the same molecule?
**A.** non-responsive

**Q.** What about the “recruitment of nuclear receptor co-repressor (NCoR) peptide to Rev-erbα” value (Rev-erbα [5]) of the same molecule?
**A.** enhances recruitment

**Q.** And the EC50 (Rev-erbα [5]; read-out: EC50 (synthetic Rev-erb agonist))?
**A.** 250 nM

**Q.** What does the source list for `CCOC(=O)N1CCC(CN(Cc2ccc(Cl)cc2)Cc2ccc([N+](=O)[O-])s2)C1` (stereo not shown) [SR9009]?
**A.** liver architecture and collagen deposition (herovici stain) ([6]; C57BL/6 mice, CCl4 5 weeks, SR9009 0.1 mg/g 5 times a week for two weeks): essentially normal liver architecture and amount of collagen deposition; CCl4-mediated liver fibrosis ([6]; mice, histological and expression data): effective reverses; Col1α1 expression in liver [6, 9]: down to almost normal levels; Col1α2 expression in liver [6, 9]: down to almost normal levels; αSMA expression in liver [6, 9]: down to almost normal levels

**Q.** What does the source list for TGFβ?
**A.** cytoplasmic Rev-erbα (Rev-erbα [7]; TGFβ treatment): stabilized; Rev-erbα protein expression (Rev-erbα [7]; Western blot, TGFβ 5 ng/ml 48 hrs, MDIR or matrigel through day 4): increased
